The record followed here is PubChem BioAssay AID1189 (EPA DSSTox, 2008).

Calls of active or inactive are those of the source.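 The calls were made as follows: active = a tumor-causing dose value with its tumor site reported for any sex and species group of a rodent or other animal cancer study; inconclusive = only studies judged inadequate by the national testing program; inactive = tested in at least one study, none positive.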

The nature of this data set: DSSTox (CPDBAS) Carcinogenic Potency Database Summary SingleCellCall Results. The conditions noted are these: animal chronic carcinogenicity bioassays, CPDB summary call. The text has this:
The Carcinogenic Potency Database (CPDB) is a unique and widely used international resource of the results of over 6500 chronic, long-term animal cancer tests on over 1500 chemical substances. The CPDB provides easy access to the bioassay literature, with qualitative and quantitative analyses of both positive and negative experiments that have been published over the past 50 years in the general literature and by the National Cancer Institute/National Toxicology Program. The CPDB standardizes the diverse literature of cancer bioassays that vary widely in protocol, histopathological examination and nomenclature, and in the published author's choices of what information to provide in their papers. Results are reported in the CPDB for tests in rats, mice, hamsters, dogs, and nonhuman primates, and are based on the most positive result among all experiments for each sex-species. The DSSTox CPDBAS (all species) file incorporates data from the CPDB Summary Tables for the full list of over 1500 chemical substances tested in at least one species. A summary SingleCellCall, based on experimental bioassay results of one or more species, is provided for the entire DSSTox CPDBAS file (see Source URL).
An assignment of categorical carcinogenic activity based on minimal evidence for or against activity. […] Associated TD50 values and tumor site details for the relevant species/sex experiment supporting this overall CPDBAS SingleSiteCall are provided in the full CPDBAS DSSTox file (see Comment) and the corresponding CPDBAS Species Bioassay in PubChem.
As for `CNC(=O)Oc1cccc2c1OC(C)(C)C2`, the result was inactive. To `CCOP(=S)(OCC)SC1OCCOC1SP(=S)(OCC)OCC` (stereo unspecified) belongs “inactive”; to `O=C(O)C(Cl)Cl`, “active; inactive”; to `NCCc1ccc(O)c(O)c1`, “inactive”. The result for `O=C(O)CCCc1ccc(N(CCCl)CCCl)cc1` reads “active”; that for `O=CC1CO1` (stereo unspecified), “inactive”. To `ClC(Cl)=C(Cl)Cl` belongs “active; inactive”; to `O=NN1CCC1`, “active”. `O=C1C=C2C(=CCOC2O)O1` (stereo unspecified): the result was inactive. With `CC(=O)Nc1ccc(S(=O)(=O)c2ccc(NC(C)=O)cc2)cc1`, the outcome was “active; inactive”. For `NCCCC(N)(C(=O)O)C(F)F` (stereo unspecified), the result was inactive.

Regarding `C=C(C)CCl`, the outcome is “active; inactive”. To `NNC=O` belongs “active”. As to `Nc1ncc([N+](=O)[O-])s1`, the result was active.

Consider `Cn1cc(C(=O)O)c(=O)c2ccc(/C=C/c3ccc([N+](=O)[O-])o3)nc21`, for which the outcome is “active; inactive”.

Consider `O=S(=O)(O)c1cc(S(=O)(=O)O)c2c(N=Nc3ccc(S(=O)(=O)O)c4ccccc34)c(O)ccc2c1`, for which the outcome was “active; inactive”. The result for `COC(=O)C1=C(C)NC(C)=C(C(=O)OCCN2CCN(C(c3ccccc3)c3ccccc3)CC2)C1c1cccc([N+](=O)[O-])c1` (stereo unspecified) reads “inactive”. To `C/C=C/C=O` belongs “active”; to `CC[C@H](C)[C@H]1O[C@]2(CC[C@@H]1C)C[C@@H]1C[C@@H](C/C=C(\C)[C@@H](O[C@H]3C[C@H](OC)[C@@H](O[C@H]4C[C@H](OC)[C@@H](O)[C@H](C)O4)[C@H](C)O3)[C@@H](C)/C=C/C=C3\CO[C@@H]4[C@H](O)C(C)=C[C@@H](C(=O)O1)[C@]34O)O2`, “inactive”. With `Cc1ccc(O)c(C(C)(C)C)c1`, the outcome was inactive. The result for `NNC(N)=S` reads “inactive”; that for `O=C1OC(O)C(C(Cl)Cl)=C1Cl` (stereo unspecified), “active”; that for `Cc1ncc[nH]1`, “active”. Regarding `OCCN(CCO)CCO`, the outcome is “active; inactive”. Consider `O=S(O)S(=O)(=O)O`, for which the result was inactive.

For `CC(=O)C(N=Nc1ccc(Cl)cc1Cl)C(=O)Nc1ccc(-c2ccc(NC(=O)C(N=Nc3ccc(Cl)cc3Cl)C(C)=O)c(C)c2)cc1C` (stereo unspecified), the result was inactive. Consider `CCN(Cc1cccc(S(=O)(=O)[O-])c1)c1ccc(C(=C2C=CC(=[N+](C)C)C=C2)c2ccc(N(CC)Cc3cccc(S(=O)(=O)O)c3)cc2)cc1`, for which the result was active. Consider `CCCCCc1cc(O)c2c(c1)OC(C)(C)[C@@H]1CCC(C)=C[C@@H]21`, for which the outcome was “inactive; active”. The result for `Cc1cc(-c2ccc(N)c(C)c2)ccc1N` reads “active”; that for `Cn1cc(C(=O)[C@@H]2CCc3nc[nH]c3C2)c2ccccc21`, “inactive; active”; that for `O=NN(CCO)CCO`, “active; inactive”. To `O=C(O)c1cc(=O)[nH]c(=O)[nH]1` belongs “inactive”.

In the case of `ClC1=C(Cl)C(Cl)(Cl)C(Cl)=C1Cl`, the outcome is “inactive; active”. Take `O=NN(CCO)CC(O)CO` (stereo unspecified): the outcome was active. To `CC(CN1CC(=O)NC(=O)C1)N1CC(=O)NC(=O)C1` (stereo unspecified) belongs “active”; to `O=NN1CCCCC1`, “active; inactive”; to `Cc1cccc(C)c1NC(=O)CN1CCCC1=O`, “inactive”.

For the compound `NC(=O)c1cnccn1`, the outcome was inactive.

`C/[N+]([O-])=N/CO[C@@H]1O[C@H](CO)[C@@H](O)[C@H](O)[C@H]1O`: the outcome was active. As for `C[N+](C)(C)CCCl`, the result was inactive. Consider `CN1C(=O)C(O)N=C(c2ccccc2)c2cc(Cl)ccc21` (stereo unspecified), for which the result was inactive. The result for `CCn1nc(C)c2c1C(c1ccccc1)=NCC(=O)N2` reads “active”.

On to `CN(C)C(=S)S[Se](SC(=S)N(C)C)(SC(=S)N(C)C)SC(=S)N(C)C`, for which the outcome was inactive. The result for `CCN=[N+](C)[O-]` reads “active”; that for `CC1(C)[C@H](C(=O)O[C@H](C#N)c2cccc(Oc3ccccc3)c2)[C@@H]1C=C(Br)Br`, “inactive”. To `F[B-](F)(F)F` belongs “inactive”; to `OCN(CO)c1nc(N(CO)CO)nc(N(CO)CO)n1`, “active”; to `ClCC1CO1` (stereo unspecified), “active”. Turning to `OCl`, the result was inactive.

In the case of `CCN(CC)CCOc1ccc(/C(=C(\Cl)c2ccccc2)c2ccccc2)cc1`, the outcome is “inactive; active”. To `O=C1CCCCC1` belongs “inactive”. Consider `S=C(SN1CCOCC1)N1CCOCC1`, for which the result was active. On to `Nc1nc(N)nc(N)n1`, for which the result was active. The result for `CCC(C)[N+](=O)[O-]` (stereo unspecified) reads “active”; that for `CCCCN(N=O)C(N)=O`, “active”; that for `Clc1cccc(-c2ccc(Cl)c(Cl)c2Cl)c1Cl`, “active”. To `C[C@H](CCc1ccccc1)NC[C@H](O)c1ccc(O)c(C(N)=O)c1` belongs “inactive”; to `Nc1ccc([N+](=O)[O-])cc1`, “inactive; active”. The result for `O=C1c2ccccc2-c2ccc3c4c(ccc1c24)-c1ccccc1C3=O` reads “active; inactive”; that for `O=C1N(CCO)CCN1/N=C/c1ccc([N+](=O)[O-])o1`, “active”; that for `CCCCN(CCCC)C(=S)[S-].CCCCN(CCCC)C(=S)[S-].[Zn+2]`, “inactive”. Regarding `CC(O)c1ccccc1` (stereo unspecified), the outcome was “active; inactive”. The result for `OC[P+](CO)(CO)CO` reads “inactive; active”. The result for `CC(Oc1cc(Cl)c(Cl)cc1Cl)C(=O)O` (stereo unspecified) reads “inactive”; that for `C[C@@H]1C[C@H]2[C@@H]3CCC4=CC(=O)C=C[C@]4(C)[C@@]3(F)[C@@H](O)C[C@]2(C)[C@@]1(O)C(=O)CO`, “inactive”. Turning to `Cc1cc(N=Nc2c(O)ccc3ccccc23)c(S(=O)(=O)O)cc1Cl`, the outcome was “active; inactive”. For `CC(=O)Nc1cccc2c1Cc1ccccc1-2`, the outcome was “inactive; active”. To `O=NN1CCN(N=O)CC1` belongs “active; inactive”; to `C=C1C(C)(C)[C@@]2(Cl)C(Cl)[C@]1(Cl)C(Cl)(Cl)C2(Cl)Cl` (stereo partly specified), “active”; to `CCCN(N=O)C(N)=O`, “active”. On to `Oc1c(Cl)cc(Cl)cc1Sc1cc(Cl)cc(Cl)c1O`, for which the result was inactive. Turning to `CC(O)CN(CC(C)O)N=O` (stereo unspecified), the result was active. To `Nc1ccc2oc3ccccc3c2c1` belongs “active”. To `O=C1C(c2[nH]c3ccc(S(=O)(=O)O)cc3c2O)=Nc2ccc(S(=O)(=O)O)cc21` belongs “inactive; active”; to `CC(C(O)c1ccccc1)N(C)N=O` (stereo unspecified), “active”. Regarding `CCc1nc(N)nc(N)c1-c1ccc(Cl)cc1`, the outcome was inactive. To `CC(C)N=[N+]([O-])C(C)C` belongs “active”; to `COc1ccc(C(=O)/C(Br)=C\C(=O)O)cc1`, “active”; to `[O]N=O`, “inactive”. The result for `O=[N+]([O-])c1ccc2nc[nH]c2c1` reads “active”. To `C[C@H]1CCCC(=O)CCC/C=C/c2cc(O)cc(O)c2C(=O)O1` belongs “active”; to `Oc1cccc2cccnc12.Oc1cccc2cccnc12.[Cu]`, “inactive”; to `NC(N)=O`, “inactive”. On to `CC(=O)Nc1nc(-c2ccc([N+](=O)[O-])o2)cs1`, for which the outcome was active. To `CN(CCCC(=O)O)N=O` belongs “active”. Regarding `N#CC(c1ccccc1)c1ccccc1`, the outcome was inactive. The result for `CCSCCC(N)C(=O)O` (stereo unspecified) reads “active”. `COc1ccc([C@@H]2CC(=O)c3c(O)cc(O[C@@H]4O[C@H](CO[C@@H]5O[C@@H](C)[C@H](O)[C@@H](O)[C@H]5O)[C@@H](O)[C@H](O)[C@H]4O)cc3O2)cc1OC`: the outcome was inactive. To `C=COC(C)=O` belongs “active”. The result for `O=S1OCCO1` reads “inactive”; that for `ClCc1ccccc1`, “active”; that for `O=c1cc[nH]c(=S)[nH]1`, “active; inactive”.

Regarding `Nc1cc([N+](=O)[O-])ccc1O`, the result was active. Regarding `CN(C)C(=O)Cl`, the result was active. To `Clc1ccc(-c2cccc(Cl)c2Cl)c(Cl)c1` belongs “active”; to `Cc1ccc(C)c(N)c1`, “active”. `CCN(CC)C(=O)Nc1ccc(OCC(O)CNC(C)(C)C)c(C(C)=O)c1` (stereo unspecified): the outcome was “inactive; active”. To `O=P(OC(CCl)CCl)(OC(CCl)CCl)OC(CCl)CCl` belongs “active”; to `CN(C)C(=S)[S][Pb][S]C(=S)N(C)C`, “inactive”. On to `Clc1ccc(Cl)cc1`, for which the result was active. To `O=C1c2ccccc2CN2C(=O)c3ccccc3CN12` belongs “active”.
